Source: ChEMBL document CHEMBL1833918, “Design and synthesis of potent, orally-active DGAT-1 inhibitors containing a dioxino[2,3-d]pyrimidine core” (Bioorg Med Chem Lett, 2011)
Activity calls are given as the source filed them. The calls are words filed in the database; no cut-off is given here.

Tests used:
hERG (KCNH2) = hERG (KCNH2) (Homo sapiens, UniProt Q12809); test: Inhibition of human ERG at 30 uM
Liver microsomes = test: Stability of the compound in human liver microsomes at 10 uM after 30 mins in presence of glutathione ethyl ester; format: ADME, Microsome; conditions: 0.5 h
[1] = Clearance in rat; format: ADME, organism-based; conditions: in vivo
[2] = Lipophilicity, log D of the compound at pH 7.4; format: physicochemical; conditions: buffer
Rattus norvegicus [3] = test: Toxicity in rat assessed as hematological signs up to 500 mg/kg; format: organism-based; set-up: dose 500 mg/kg; conditions: in vivo
Rattus norvegicus [4] = test: Toxicity in rat assessed as clinical signs up to 500 mg/kg; format: organism-based; set-up: dose 500 mg/kg; conditions: in vivo
Mus musculus [5] = organism: Mus musculus; conditions: C57BL6J, 1 to 3 mg/kg
Description: Inhibition of triglyceride synthesis in a lipid challenged C57BL6J mouse at 1 to 3 mg/kg, po coadministered with bolus of lipid

[6] = Permeability of the compound; format: ADME; conditions: not told; read-out: permeability
Salmonella typhimurium = test: Genotoxicity in Salmonella Typhimurium by Ames test; format: toxicity, organism-based; conditions: salmonella enterica subsp. enterica serovar typhimurium
Rattus norvegicus [7] = test: Toxicity in rat assessed as histopathological signs up to 500 mg/kg; format: organism-based; set-up: dose 500 mg/kg; conditions: in vivo
Mus musculus [8] = test: Inhibition of triglyceride synthesis in a lipid challenged C57BL6J mouse administered orally; format: functional; conditions: po

Chain of hERG (KCNH2) (Q12809 whole entry): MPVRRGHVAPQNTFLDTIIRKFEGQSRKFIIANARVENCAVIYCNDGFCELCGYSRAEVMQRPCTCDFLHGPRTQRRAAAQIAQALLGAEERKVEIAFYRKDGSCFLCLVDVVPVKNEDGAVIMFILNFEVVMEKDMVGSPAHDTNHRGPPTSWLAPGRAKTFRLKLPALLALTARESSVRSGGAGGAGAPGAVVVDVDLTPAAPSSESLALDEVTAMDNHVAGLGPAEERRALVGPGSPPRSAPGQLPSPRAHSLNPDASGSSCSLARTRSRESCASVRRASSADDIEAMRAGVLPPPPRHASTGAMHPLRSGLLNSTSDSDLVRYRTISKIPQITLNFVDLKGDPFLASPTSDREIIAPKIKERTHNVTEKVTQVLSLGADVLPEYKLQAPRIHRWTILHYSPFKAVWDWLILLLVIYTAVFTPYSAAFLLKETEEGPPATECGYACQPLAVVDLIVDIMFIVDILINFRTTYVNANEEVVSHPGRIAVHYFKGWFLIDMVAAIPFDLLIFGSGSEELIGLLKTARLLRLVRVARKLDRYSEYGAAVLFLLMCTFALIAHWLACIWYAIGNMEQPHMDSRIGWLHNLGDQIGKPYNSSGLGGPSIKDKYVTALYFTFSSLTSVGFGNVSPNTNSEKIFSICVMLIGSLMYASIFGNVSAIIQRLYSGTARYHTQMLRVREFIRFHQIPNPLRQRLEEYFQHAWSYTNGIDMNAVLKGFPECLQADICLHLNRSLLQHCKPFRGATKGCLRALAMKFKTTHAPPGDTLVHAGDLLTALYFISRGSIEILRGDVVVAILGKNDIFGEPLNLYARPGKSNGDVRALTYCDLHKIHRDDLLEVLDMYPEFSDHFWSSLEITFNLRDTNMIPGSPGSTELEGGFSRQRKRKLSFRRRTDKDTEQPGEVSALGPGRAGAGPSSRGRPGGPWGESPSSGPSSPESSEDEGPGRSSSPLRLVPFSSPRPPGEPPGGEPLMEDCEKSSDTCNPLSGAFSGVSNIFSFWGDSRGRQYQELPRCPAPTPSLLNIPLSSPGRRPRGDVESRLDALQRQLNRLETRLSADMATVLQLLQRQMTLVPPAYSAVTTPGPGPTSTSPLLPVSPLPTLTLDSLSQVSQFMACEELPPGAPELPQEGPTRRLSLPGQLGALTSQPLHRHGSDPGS

| Stability (Liver microsomes) | clearance [1] [mL/min/kg] | logD [2] | Papp [6] [×10⁻⁶ cm/s] | SMILES | inhibition at 30 µM (hERG (KCNH2)) [%] | Activity (Rattus norvegicus [3]) | Activity (Rattus norvegicus [4]) | inhibition (Mus musculus [5]) | Activity (Salmonella typhimurium) | Activity (Rattus norvegicus [7]) | ED50 (Mus musculus [8]) [mg/kg] |
| --- | --- | --- | --- | --- | --- | --- | --- | --- | --- | --- | --- |
| Unstable | 2 | 0.74 | 7.7 | Nc1ncnc2c1O[C@@H](c1ccc([C@H]3CC[C@H](CC(=O)O)CC3)cc1)CO2 | 8 | Non-toxic | Non-toxic | Active | Non-toxic | Non-toxic |  |
|  |  |  |  | CC1(C)Oc2ncnc(N)c2N=C1c1ccc([C@H]2CC[C@H](CC(=O)O)CC2)cc1 |  |  |  |  |  |  | 0.3 |
|  |  | -0.15 |  | Nc1ncnc2c1C(=O)N(c1ccc([C@H]3CC[C@H](CC(=O)O)CC3)cc1)CCO2 [PF-04620110] |  |  |  |  |  |  |  |
